Experimental data: publication PMC5943518, “The protein kinase CK2 catalytic domain from Plasmodium falciparum: crystal structure, tyrosine kinase activity and inhibition” (Scientific Reports, 2018)

How the values were obtained:
[1] = target: T1, PfCK2α (protein kinase CK2 catalytic α subunit), PfCK2αD179S (Plasmodium falciparum, UniProt Q8IIR9, D179S); assay: co-crystal structure at […] Å without Mg2+; ITC (KD […] without Mg2+, […] with […] Mg2+); type: binding
T1 construct: gene PF3D7_1108400; Ile12 to Ser335 (catalytic domain), hexa-histidine tag at C-terminus
T1 sequence (Q8IIR9 12-335 D179S): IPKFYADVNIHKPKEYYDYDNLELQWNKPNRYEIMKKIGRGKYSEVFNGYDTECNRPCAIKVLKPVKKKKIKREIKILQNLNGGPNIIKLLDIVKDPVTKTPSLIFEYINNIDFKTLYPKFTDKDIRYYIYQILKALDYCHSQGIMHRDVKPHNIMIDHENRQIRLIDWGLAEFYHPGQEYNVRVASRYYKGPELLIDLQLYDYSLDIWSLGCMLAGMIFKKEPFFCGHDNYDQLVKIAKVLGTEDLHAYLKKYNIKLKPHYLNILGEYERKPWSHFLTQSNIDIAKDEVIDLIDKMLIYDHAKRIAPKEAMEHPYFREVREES

[2] = target: T2, PfCK2 (PfCK2α, protein kinase CK2 catalytic subunit) (Plasmodium falciparum, UniProt Q8IIR9); assay: radiometric peptide kinase assay with γ[…]-ATP ([…] ATP); type: biochemical
T2 construct: gene PF3D7_1108400; Ile12 to Ser335 of PfCK2α

Nc1ncnc2c1ncn2[C@@H]1O[C@H](COP(=O)(O)OP(=O)(O)OP(=O)(O)O)[C@@H](O)[C@H]1O [ATP]
Kd [1]: 22.3 µM

O=C(O)c1ccc2c(c1)nc(Nc1cccc(Cl)c1)c1ccncc12 [CX4945]
IC50 [2]: 0.0132 µM
